Laboratory results as given in US10168342B2, “Lipid probes and uses thereof” (THE SCRIPPS RESEARCH INSTITUTE, priority 2015, dated 2019).

Key:
Test in all cases: In situ competitive SILAC profiling with A-DA probe in (PMA-stimulated) A549 cells
Details in all cases: A549 cells, A-DA probe
[1] = target: A-DA lipid probe targets in A549 cells (Homo sapiens, UniProt Q9H6K4)
[2] = target: T1, A-DA lipid probe targets in A549 cells (Homo sapiens, UniProt Q15738)
T1 sequence (Q15738 1-373): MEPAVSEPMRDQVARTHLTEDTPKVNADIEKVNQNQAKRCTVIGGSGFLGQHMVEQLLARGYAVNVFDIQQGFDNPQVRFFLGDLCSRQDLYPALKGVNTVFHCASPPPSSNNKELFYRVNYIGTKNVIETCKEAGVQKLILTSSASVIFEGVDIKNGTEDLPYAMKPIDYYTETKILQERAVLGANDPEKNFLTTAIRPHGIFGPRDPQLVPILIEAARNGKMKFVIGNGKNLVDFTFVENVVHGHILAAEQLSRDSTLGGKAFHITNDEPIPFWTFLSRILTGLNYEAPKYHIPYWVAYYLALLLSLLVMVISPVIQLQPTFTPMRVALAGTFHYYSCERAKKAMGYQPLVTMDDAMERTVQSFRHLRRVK

[3] = target: T2, A-DA lipid probe targets in A549 cells (Homo sapiens, UniProt Q9HAW7)
T2 sequence (Q9HAW7 26-530): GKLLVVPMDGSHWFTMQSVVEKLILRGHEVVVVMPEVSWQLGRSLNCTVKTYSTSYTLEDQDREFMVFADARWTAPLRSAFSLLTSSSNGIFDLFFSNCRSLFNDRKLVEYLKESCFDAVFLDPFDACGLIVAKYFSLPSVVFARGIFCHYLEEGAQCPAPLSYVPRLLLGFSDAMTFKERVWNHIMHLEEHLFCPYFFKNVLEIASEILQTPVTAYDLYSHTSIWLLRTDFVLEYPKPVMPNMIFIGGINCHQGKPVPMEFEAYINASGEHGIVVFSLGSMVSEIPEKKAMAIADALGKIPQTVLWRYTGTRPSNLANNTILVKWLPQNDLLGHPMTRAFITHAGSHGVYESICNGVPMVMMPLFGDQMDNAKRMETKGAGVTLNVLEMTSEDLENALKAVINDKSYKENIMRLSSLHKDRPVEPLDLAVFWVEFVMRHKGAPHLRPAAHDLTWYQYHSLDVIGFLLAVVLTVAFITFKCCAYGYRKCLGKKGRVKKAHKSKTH

[4] = target: T3, A-DA lipid probe targets in A549 cells (Homo sapiens, UniProt Q6P1A2)
T3 sequence (Q6P1A2 1-487): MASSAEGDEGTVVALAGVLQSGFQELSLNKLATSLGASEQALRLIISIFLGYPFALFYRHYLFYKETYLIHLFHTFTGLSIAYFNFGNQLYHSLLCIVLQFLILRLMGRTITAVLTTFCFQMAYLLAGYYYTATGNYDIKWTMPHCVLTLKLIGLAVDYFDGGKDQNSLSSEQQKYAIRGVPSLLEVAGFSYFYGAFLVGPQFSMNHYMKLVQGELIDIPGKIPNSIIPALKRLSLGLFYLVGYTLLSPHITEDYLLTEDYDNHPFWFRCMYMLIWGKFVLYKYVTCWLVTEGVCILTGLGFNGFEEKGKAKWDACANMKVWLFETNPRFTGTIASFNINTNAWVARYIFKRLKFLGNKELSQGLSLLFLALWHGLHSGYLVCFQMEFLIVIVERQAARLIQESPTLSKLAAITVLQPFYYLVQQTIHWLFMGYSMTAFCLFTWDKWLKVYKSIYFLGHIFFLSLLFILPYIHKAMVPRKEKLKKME

[5] = target: T4, A-DA lipid probe targets in A549 cells (Homo sapiens, UniProt O75911)
T4 sequence (O75911 1-302): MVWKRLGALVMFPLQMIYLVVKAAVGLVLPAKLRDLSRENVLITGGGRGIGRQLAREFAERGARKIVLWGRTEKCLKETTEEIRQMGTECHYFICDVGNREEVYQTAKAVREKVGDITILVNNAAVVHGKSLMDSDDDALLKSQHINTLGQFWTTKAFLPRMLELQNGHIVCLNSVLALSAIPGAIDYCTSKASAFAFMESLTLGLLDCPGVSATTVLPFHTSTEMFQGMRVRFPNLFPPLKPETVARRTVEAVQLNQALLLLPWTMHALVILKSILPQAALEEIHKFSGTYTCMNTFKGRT

[6] = target: T5, A-DA lipid probe targets in A549 cells (Homo sapiens, UniProt Q9BTX1)
T5 sequence (Q9BTX1 1-674): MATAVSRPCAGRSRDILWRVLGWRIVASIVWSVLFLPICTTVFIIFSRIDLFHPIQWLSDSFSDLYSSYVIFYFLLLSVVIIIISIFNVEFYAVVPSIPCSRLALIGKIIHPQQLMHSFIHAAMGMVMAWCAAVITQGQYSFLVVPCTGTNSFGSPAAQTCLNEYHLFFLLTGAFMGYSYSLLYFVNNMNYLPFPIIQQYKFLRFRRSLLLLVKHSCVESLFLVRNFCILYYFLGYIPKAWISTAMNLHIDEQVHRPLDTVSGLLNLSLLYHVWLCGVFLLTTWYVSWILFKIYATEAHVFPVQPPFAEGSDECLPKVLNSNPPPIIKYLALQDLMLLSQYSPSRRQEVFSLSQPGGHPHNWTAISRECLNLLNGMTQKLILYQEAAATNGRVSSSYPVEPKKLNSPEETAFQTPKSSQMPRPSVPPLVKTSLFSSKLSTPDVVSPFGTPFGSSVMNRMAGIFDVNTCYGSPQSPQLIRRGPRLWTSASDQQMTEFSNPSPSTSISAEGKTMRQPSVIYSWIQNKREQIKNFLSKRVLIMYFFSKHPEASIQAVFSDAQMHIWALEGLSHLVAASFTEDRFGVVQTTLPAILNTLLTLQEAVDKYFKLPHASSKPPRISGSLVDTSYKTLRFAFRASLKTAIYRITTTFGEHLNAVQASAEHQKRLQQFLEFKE

Chain of A-DA lipid probe targets in A549 cells (Homo sapiens, UniProt Q9H6K4) (Q9H6K4 whole entry): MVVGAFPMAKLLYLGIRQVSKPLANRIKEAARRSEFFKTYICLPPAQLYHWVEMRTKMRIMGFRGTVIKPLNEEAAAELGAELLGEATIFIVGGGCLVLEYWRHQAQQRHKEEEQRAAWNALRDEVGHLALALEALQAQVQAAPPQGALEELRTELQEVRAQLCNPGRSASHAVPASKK

## O=C(/C=C/c1cccnc1)NCCCCC1CCN(C(=O)c2ccccc2)CC1 [FK-866, reference compound]
[1]; competitor 25 μM
  SILAC ratio, OPA3 (Q505D7): 1.3
[2]; competitor 25 μM
  SILAC ratio, NSDHL (Q15738): 1.4
[3]; competitor 25 μM
  SILAC ratio, UGT1A7 (Q9HAW7): 2.1
[4]; competitor 25 μM
  SILAC ratio, LPCAT3 (Q6P1A2): 3.3
[5]; competitor 25 μM
  SILAC ratio, DHRS3 (O75911): 2.0
[6]; competitor 25 μM
  SILAC ratio, TMEM48 (Q8VCB1): 1.2

## C=CCN(C)CCCCCCOc1ccc(C(=O)c2ccc(Br)cc2)c(F)c1 [Ro488071]
[1]; competitor 5 μM
  SILAC ratio, OPA3 (Q505D7): 1.8
[2]; competitor 5 μM
  SILAC ratio, NSDHL (Q15738): 1.5
[2]; competitor 50 μM
  SILAC ratio, NSDHL (Q15738): 2.5
[3]; competitor 5 μM
  SILAC ratio, UGT1A7 (Q9HAW7): 1.6
[3]; competitor 50 μM
  SILAC ratio, UGT1A7 (Q9HAW7): 40.0
[4]; competitor 5 μM
  SILAC ratio, LPCAT3 (Q6P1A2): 1.3
[4]; competitor 50 μM
  SILAC ratio, LPCAT3 (Q6P1A2): 2.7
[5]; competitor 5 μM
  SILAC ratio, DHRS3 (O75911): 1.8
[5]; competitor 50 μM
  SILAC ratio, DHRS3 (O75911): 3.1
[6]; competitor 5 μM
  SILAC ratio, TMEM48 (Q8VCB1): 1.5
[6]; competitor 50 μM
  SILAC ratio, TMEM48 (Q8VCB1): 2.8
